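Grown in 96-well plates, cells were treated for 48 hours with each compound at five concentrations. Insufficient inhibition: endpoint recorded as highest concentration tested. Here, GI50 denotes the concentration required for 50% inhibition of growth. At the TGI there is no net growth.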 The source made the active and inactive calls. No stated cut-off is given here; in the data, active means GI50 below about 0.43 µM; inactive means the rest.
Assays:
Assay in all cases: growth of human tumour cells (NCI), 48 h
[1] = tested on: CAKI-1 renal
[2] = tested on: LOX IMVI melanoma
[3] = tested on: M14 melanoma
[4] = tested on: OVCAR-5 ovarian
[5] = tested on: SF-539 CNS
[6] = tested on: SK-MEL-2 melanoma
[7] = tested on: SNB-19 CNS

SMILES	GI50 [1]	TGI [1]	GI50 [2]	TGI [2]	GI50 [3]	TGI [3]	GI50 [4]	TGI [4]	GI50 [5]	TGI [5]	GI50 [6]	TGI [6]	GI50 [7]	TGI [7]	outcome [7]
Cc1cc(-c2cnn3c(NCC4CC(C)(O)C4)cc(Oc4cccnc4)nc23)ccc1C(=O)NC1CC1 (configuration not stated)	1.38 µM	> 100 µM	0.395 µM	> 100 µM	1.44 µM	> 100 µM	> 100 µM	> 100 µM	2.01 µM	> 100 µM	1.95 µM	> 100 µM	> 60.7 µM	> 100 µM	
Nc1nccc(-c2c(-c3ccc(F)cc3)ncn2C2CCC(O)CC2)n1 (configuration not stated)	7.13 µM	> 25 µM	9.34 µM	> 25 µM	14 µM	> 25 µM	8.45 µM	> 25 µM	> 23.2 µM	> 25 µM	24.7 µM	> 25 µM	15.6 µM	> 25 µM	
N#CSC1CCCCNC1=O (configuration not stated)		31.8 µM		> 100 µM		39.3 µM		13.2 µM		26.5 µM		27 µM		30.2 µM	
CC/C=C\C[C@H](F)C/C=C1/C(=O)C=C[C@@H]1C/C=C\CCCC(=O)O	6.52 µM	22.5 µM	3.77 µM	7.97 µM	6.53 µM	20 µM	8.18 µM	21 µM	7.21 µM	17 µM	6.7 µM	16.9 µM	7.31 µM	25.4 µM	
O=C1Nc2ccccc2C1(c1ccc(O)cc1)c1ccc(O)cc1	22.7 µM	81.3 µM	5.97 µM	35.9 µM	20.1 µM	49.3 µM	25.6 µM	81.5 µM	18.5 µM	40.2 µM	22.9 µM	50.6 µM	34.3 µM	> 97 µM	
CC1(C)OC2=C(CC1Br)C(=O)C(=O)c1ccccc12 (configuration not stated)	1.66 µM	3.15 µM	1 µM	3.39 µM	1.9 µM	3.64 µM			1.82 µM	3.37 µM	1.65 µM	3.57 µM			
Cc1ccc(C(=O)N(CCCN)C(c2oc3cc(Cl)ccc3c(=O)c2Cc2ccccc2)C(C)C)cc1 (configuration not stated)	0.0492 µM	1.94 µM	< 0.0402 µM	1.98 µM			< 0.01 µM	1.78 µM	< 0.01 µM		< 0.01 µM		1.02 µM	2.41 µM	
Cc1ccc2c(c1)Sc1c(ccc3ccccc13)N2	15.3 µM	> 100 µM	8.91 µM	> 100 µM	> 100 µM	> 100 µM	> 100 µM	> 100 µM	20.7 µM	> 100 µM	> 100 µM	> 100 µM	> 100 µM	> 100 µM	
CS(=O)(=O)c1ccc(-n2nc(C(F)(F)F)cc2OC2CCCC2)cc1	21.1 µM	54.4 µM	16.9 µM	54.6 µM	32.2 µM	93.5 µM	> 100 µM	> 100 µM	39.8 µM	> 100 µM	> 100 µM	> 100 µM	48.7 µM	> 100 µM	
Nc1nc(N(Cc2ccccc2)c2ccccc2)c2cn[nH]c2n1	3.67 µM	> 100 µM	3.91 µM	> 100 µM	5.22 µM	> 100 µM			2.95 µM	> 100 µM	3.14 µM	> 100 µM	> 100 µM	> 100 µM	
O=c1cc(-c2ccccc2)oc2cc(OC/C(=N/O)c3ccccc3)ccc12	12.8 µM	> 50 µM	30.5 µM	> 50 µM	> 50 µM	> 50 µM	> 50 µM	> 50 µM	10.8 µM	23.6 µM	20.2 µM	> 50 µM	18.2 µM	> 50 µM	
COc1cc2cc(Oc3ccc(NC(=O)Nc4ccc(Cl)c(C(F)(F)F)c4)cc3)c(C)nc2cc1OCCN1CCOCC1	1.8 µM	10.8 µM	1.39 µM	2.81 µM	1.52 µM	3.45 µM	4.02 µM	65.2 µM	1.68 µM	3.26 µM	1.65 µM	4.06 µM	3.23 µM	19.8 µM	
O=C(CCc1nnc2sc(-c3ccc(Cl)cc3Cl)nn12)c1nc2ccccc2[nH]1	2.22 µM	5.45 µM	0.233 µM	0.671 µM	0.282 µM	1.03 µM	1.96 µM	4.23 µM	1.98 µM	4.63 µM	1.78 µM	5.4 µM	1.41 µM	5.8 µM	
CCOC(=S)SSSC(=S)OCC		> 100 µM		> 100 µM		> 100 µM		86.6 µM		> 100 µM				> 100 µM	
CCCC(=O)OCC1OC(n2cnc3c(=S)nc[nH]c32)C(OC(=O)CCC)C1OC(=O)CCC (configuration not stated)	2.51 µM	23.5 µM	2.34 µM	> 100 µM	2.23 µM	> 100 µM	4.76 µM	> 100 µM	3.53 µM	> 100 µM	28.1 µM	> 100 µM	46.4 µM	> 100 µM	
C#CCNC(=O)c1cccc2c1cc(C)n2-c1nc2c(c(NCc3ccccc3)n1)CCCC2	0.0289 µM	0.176 µM	0.0104 µM	0.0256 µM	0.0195 µM	0.0439 µM	0.0461 µM	0.154 µM	0.0245 µM	0.07 µM	0.023 µM	0.0627 µM	0.0362 µM	0.126 µM	
COc1ccc(C(=O)C#Cc2cnc(OC)nc2OC)cc1	25300 µM		9800 µM		27900 µM	2.64 µM	31100 µM	3.01 µM			36100 µM			24.7 µM	inactive
CS(=O)(=O)CCNCc1ccc(-c2ccc3ncnc(Nc4ccc(OCc5ccccc5)cc4)c3c2)o1	2.04 µM	> 25 µM	4.05 µM	8.75 µM	4.89 µM	9.74 µM	6.51 µM	> 25 µM	4.91 µM	11 µM	5.5 µM	10.7 µM	11.1 µM	> 25 µM	
